Data: the supplement of paper PMC11208160

Experiment: recombinant barcode read abundance after kanamycin selection (control-corrected) (log10(CPM+1)); higher = more efficient recombination; sequences stand for … in AGTGCAGAGAAAATCGGCCAGTTTTCTCTGCCTGCAGTCCGCATGCCGT…AGATTTATGCAGCGGACTGCCTTTCTCCCAAAGTGATAAACCGGACAGTATCATGGACCGGTTTTCCCGGTAATCCGTATTTGCAAGGTTGGTTTCACT; site = the 11-nt target
Outline: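 Duplicate cultures were plated either on chloramphenicol/ampicillin LB agar, serving as control, or on chloramphenicol/ampicillin/kanamycin with 0.1 mM IPTG. These came from a pooled E. coli library co-electroporated with a donor plasmid, each member pairing a target with an IS621 bridge RNA target-binding loop. Recombination efficiency equals averaged, control-corrected counts per million of recombinant-junction barcodes. It is listed as log10(CPM+1).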
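Note: IS621 recombinase and bridge RNA in Escherichia coli cells.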

Sequence	recombinant barcode read abundance (log10)
TCGCCTTCTTGGGTTCTAACCTGTTGCCT (site TCGCCTTCTAG)	0.364
TCGCCTTCTTGGGTTCTAACCTGTTGCCT (site TGGCCTTCTAG)	0.654
TCGCCTTCTTGGGTTCTAACCTGTTGCCT (site TTGCCTTCTAG)	0.0934
TCGCGGCCTTGGGTTCTAACCTGTTGCCT (site ACGCGGCCTAG)	0.153
TCGCGGCCTTGGGTTCTAACCTGTTGCCT (site CCGCGGCCTAG)	0.105
TCGCGGCCTTGGGTTCTAACCTGTTGCCT (site GCGCGGCCTAG)	0.1
TCGCGGCCTTGGGTTCTAACCTGTTGCCT (site TCGCGGCCTAG)	0.0408
TCGCGTCCTTGGGTTCTAACCTGTTGCCG (site ACGCGTCCTCG)	0.116
TCGCGTCCTTGGGTTCTAACCTGTTGCCG (site TCGCGTCCTCG)	1.41
TCGCTAGCTTGGGTTCTAACCTGTTGCGG (site CCGCTACCTCC)	1.83
TCGCTAGCTTGGGTTCTAACCTGTTGCGG (site TCGCTAGCTCC)	0.657
TCGGACACTTGGGTTCTAACCTGTTGCCA (site TCGGACACTTG)	1.89
TCGGACACTTGGGTTCTAACCTGTTGCCA (site TGGGACTCTTG)	0.0505
TCGGAGGCTTGGGTTCTAACCTGTTGCTG (site TCAGAGGCTCA)	0.774
TCGGAGGCTTGGGTTCTAACCTGTTGCTG (site TCCGAGGCTCA)	0.325
TCGGAGGCTTGGGTTCTAACCTGTTGCTG (site TCGGAGGCTCA)	0.442
TCGGAGGCTTGGGTTCTAACCTGTTGCTG (site TCTGAGGCTCA)	0.374
TCGGAGTCTTGGGTTCTAACCTGTTGCCT (site TCGGAGTCTAA)	0.128
TCGGAGTCTTGGGTTCTAACCTGTTGCCT (site TCGGAGTCTAC)	1.06
TCGGAGTCTTGGGTTCTAACCTGTTGCCT (site TCGGAGTCTAG)	2.23
TCGGAGTCTTGGGTTCTAACCTGTTGCCT (site TCGGAGTCTAT)	0.503
TCGGATACTTGGGTTCTAACCTGTTGCCA (site TAGGACACTTG)	0.0618

Sequence	recombinant barcode read abundance (log10)
TCGGATACTTGGGTTCTAACCTGTTGCCA (site TCGGATACTTG)	0.456
TCGGCCTCTTGGGTTCTAACCTGTTGCTA (site CGTCTAGCTAT)	0.054
TCGGCCTCTTGGGTTCTAACCTGTTGCTA (site TCGGCCTCTTA)	0.877
TCGGCGACTTGGGTTCTAACCTGTTGCCT (site TCAGCGACTAG)	0.11
TCGGCGACTTGGGTTCTAACCTGTTGCCT (site TCCGCGACTAG)	0.0866
TCGGCGACTTGGGTTCTAACCTGTTGCCT (site TCGGCGACTAG)	0.0143
TCGGCGACTTGGGTTCTAACCTGTTGCCT (site TCTGCGACTAG)	0.291
TCGGGAACTTGGGTTCTAACCTGTTGCCT (site TCGCGAACTAG)	0.502
TCGGGAACTTGGGTTCTAACCTGTTGCCT (site TCGGGAACTAG)	0.34
TCGGGATCTTGGGTTCTAACCTGTTGCCT (site ACGGGATCTAG)	0.365
TCGGGATCTTGGGTTCTAACCTGTTGCCT (site CCGGGATCTAG)	0.184
TCGGGATCTTGGGTTCTAACCTGTTGCCT (site GCGGGATCTAG)	0.0188
TCGGGATCTTGGGTTCTAACCTGTTGCCT (site TCGGGATCTAG)	1.05
TCGGTGACTTGGGTTCTAACCTGTTGCCT (site ACGGTGACTAG)	0.658
TCGGTGACTTGGGTTCTAACCTGTTGCCT (site CCGGTGACTAG)	0.0364
TCGGTGACTTGGGTTCTAACCTGTTGCCT (site GCGGTGACTAG)	0.0708
TCGGTGACTTGGGTTCTAACCTGTTGCCT (site TCGGTGACTAG)	0.87
TCGTACCCTTGGGTTCTAACCTGTTGCGA (site TCGAACCCTTC)	0.256
TCGTACCCTTGGGTTCTAACCTGTTGCGA (site TCGCACCCTTC)	0.0875
TCGTACCCTTGGGTTCTAACCTGTTGCGA (site TCGGACCCTTC)	0.0548
TCGTACCCTTGGGTTCTAACCTGTTGCGA (site TCGTACCCTTC)	0.617
TCGTCTCCTTGGGTTCTAACCTGTTGCTT (site TCGTCTCCTAA)	0

Sequence	recombinant barcode read abundance (log10)
TCGTCTCCTTGGGTTCTAACCTGTTGCTT (site TTATCTCCTAA)	0.386
TCGTGCACTTGGGTTCTAACCTGTTGCCT (site TCGTGCACTAG)	0.215
TCGTGCACTTGGGTTCTAACCTGTTGCCT (site TCGTGCCCTAG)	0.448
TCGTGCACTTGGGTTCTAACCTGTTGCCT (site TCGTGCGCTAG)	0.0852
TCGTGCACTTGGGTTCTAACCTGTTGCCT (site TCGTGCTCTAG)	0.178
TCGTGCCCTTGGGTTCTAACCTGTTGCTT (site TCGTGCCCTAA)	0.0384
TCGTGCCCTTGGGTTCTAACCTGTTGCTT (site TCGTGCCCTCA)	1.5
TCGTGCTCTTGGGTTCTAACCTGTTGCCT (site TCGTGCACTAG)	0.0667
TCGTGCTCTTGGGTTCTAACCTGTTGCCT (site TCGTGCCCTAG)	0.282
TCGTGCTCTTGGGTTCTAACCTGTTGCCT (site TCGTGCGCTAG)	0.193
TCGTGCTCTTGGGTTCTAACCTGTTGCCT (site TCGTGCTCTAG)	0.0894
TCTAACCCTTGGGTTCTAACCTGTTGCAT (site TCTAAACCTAT)	0.0654
TCTAACCCTTGGGTTCTAACCTGTTGCAT (site TCTAACCCTAT)	0.251
TCTAACCCTTGGGTTCTAACCTGTTGCAT (site TCTAAGCCTAT)	0.028
TCTAACCCTTGGGTTCTAACCTGTTGCAT (site TCTAATCCTAT)	0.0655
TCTAATCCTTGGGTTCTAACCTGTTGCAT (site TCTAAACCTAT)	0.11
TCTAATCCTTGGGTTCTAACCTGTTGCAT (site TCTAACCCTAT)	0.0519
TCTAATCCTTGGGTTCTAACCTGTTGCAT (site TCTAAGCCTAT)	0.0992
TCTAATCCTTGGGTTCTAACCTGTTGCAT (site TCTAATCCTAT)	0.025
TCTAATTCTTGGGTTCTAACCTGTTGCAT (site TCTAATTCTAT)	0.0913
TCTAATTCTTGGGTTCTAACCTGTTGCAT (site TCTGACTCTAT)	0.186
TCTAATTCTTGGGTTCTAACCTGTTGCGT (site TCTAATTCTAC)	0.095

Sequence	recombinant barcode read abundance (log10)
TCTAATTCTTGGGTTCTAACCTGTTGCGT (site TCTCATTCTAC)	0.162
TCTAATTCTTGGGTTCTAACCTGTTGCGT (site TCTGATTCTAC)	0.899
TCTAATTCTTGGGTTCTAACCTGTTGCGT (site TCTTATTCTAC)	0.047
TCTAGAGCTTGGGTTCTAACCTGTTGCCT (site TCTAGAACTAG)	0.0712
TCTAGAGCTTGGGTTCTAACCTGTTGCCT (site TCTAGACCTAG)	0.228
TCTAGAGCTTGGGTTCTAACCTGTTGCCT (site TCTAGAGCTAG)	0.0183
TCTAGAGCTTGGGTTCTAACCTGTTGCCT (site TCTAGATCTAG)	0.339
TCTAGGACTTGGGTTCTAACCTGTTGCAA (site CGACAATCTAA)	0.29
TCTAGGACTTGGGTTCTAACCTGTTGCAA (site TCTAGGACTTT)	0.52
TCTCACGCTTGGGTTCTAACCTGTTGCCT (site TCGCACGCTAG)	0.0772
TCTCACGCTTGGGTTCTAACCTGTTGCCT (site TCTCACGCTAG)	0.964
TCTCACTCTTGGGTTCTAACCTGTTGCCT (site TCACACTCTAG)	0.0111
TCTCACTCTTGGGTTCTAACCTGTTGCCT (site TCCCACTCTAG)	0.504
TCTCACTCTTGGGTTCTAACCTGTTGCCT (site TCGCACTCTAG)	0.0924
TCTCACTCTTGGGTTCTAACCTGTTGCCT (site TCTCACTCTAG)	1.54
TCTCATGCTTGGGTTCTAACCTGTTGCAT (site GACGGCACTCC)	0.0135
TCTCATGCTTGGGTTCTAACCTGTTGCAT (site TCTCATGCTAT)	0.224
TCTCGGCCTTGGGTTCTAACCTGTTGCCT (site TCTCAGCCTAG)	0.0701
TCTCGGCCTTGGGTTCTAACCTGTTGCCT (site TCTCCGCCTAG)	0.394
TCTCGGCCTTGGGTTCTAACCTGTTGCCT (site TCTCGGCCTAG)	0.202
